This passage reports inhibition results from patent US4996230A, “Leukotriene antagonists” (Eli Lilly and Company, priority 1990, dated 1991).

As a reminder, the inhibition is the drop in the measured response relative to a control, in per cent.

The test addresses T1, leukotriene B4 specific receptor on the membrane of human neutrophils (Homo sapiens, UniProt Q15722).
T1 construct: a specific receptor on the membrane of human neutrophils; endogenous in cells; host or cells: human peripheral blood neutrophils (buffy coats of two blood donors; intact cells, at least 90% neutrophils)
Briefly: Inhibition of Binding of ^3H-LTB4 to Peripheral Human Neutrophils (radio-ligand binding assay). The conditions noted are these: 0.1-0.2 nM ^3H-LTB4, 10 minutes at 4° C., read-out: LTB4 Binding Inhibition (percent inhibition); for inhibition at 1 µM: Drug Concentration 10^-6 M; for inhibition at 0.1 µM: Drug Concentration 10^-7 M; for inhibition at 10 µM: Drug Concentration 10^-5 M. On the procedure:
Inhibition of Binding of ^3 H-LTB4 to Peripheral Human Neutrophils
The effectiveness of compounds to inhibit the binding of leukotriene B4 to a specific receptor on the membrane of human neutrophils was measured by using an adaptation of a radio-ligand binding assay developed by Goldman and Goetzl, J. Immunol., 129, 1600 (1982). Other investigators have developed similar assays (see, e.g., Kreisle, et al., J. Exp. Med., 157, 628 (1983) and Lin, et al., Prostaglandins, 28, 837 (1984)).
Cells used in the assay were isolated by standard techniques of centrifugation on Ficoll-Hypaque, dextran 70 sedimentation and hypotonic lysis. The following procedure was used. Freshly-prepared buffy coat layers from two individuals were obtained from a local blood donor center. The cells were mixed and diluted to 484 ml with phosphate buffered saline containing heparin (10 units/ml) and heat-inactivated calf serum (5%). This was divided into 20 ml aliquots and the aliquots layered on top of Ficoll-Paque (12 ml). The material was then centrifuged at 500 g for 40 minutes at room temperature. The resulting upper layer of platelets and mononuclear cells was discarded. The lower layer containing erythrocytes and neutrophils was retained. Buffer was added (1 ml per 4 ml of lower layer) and the suspension mixed. For each milliliter of this mixture, 0.33 ml of 6% Macrodex was added. After stirring, the cells were allowed to sediment for 1 hour at 37° C. The resulting erythrocyte pellet was discarded and the neutrophil enriched supernatant fluid centrifuged at 500 g for 10 minutes at 4° C. Erythrocytes still present in this cell pellet were lysed by incubating the cells with 5-8 ml ice-cold distilled water for 30-45 seconds. Subsequently, the volume was made up to 50 ml by addition of ice-cold buffer and the cells resuspended. The suspension was then centrifuged at 300 g for 10 minutes at 4° C. The cells were finally resuspended at a cell density of 2×10^7 cells/ml in the assay buffer. This buffer consisted of Hanks' balanced salt solution and 0.1% ovalbumin (pH 7.3).
The amount of bound ^3 H-LTB4 was then measured and compared with the amount bound in the absence of test compound. The assay was carried out in microcentrifuge tubes by adding first 10 μl test compound dissolved in DMSO, followed by adding 20 μl ^3 H-LTB4 diluted in assay buffer, and finally adding 500 μl of the cell suspension. At the end of the 10 minutes incubation, 300 μl of a mixture of dibutyl and dinonyl phthalate (7:2) were added and the tubes centrifuged for 2 minutes in a microcentrifuge. The radioactivity bound to the cell pellet was measured by scintillation spectroscopy. Appropriate corrections for nonspecific bonding of ^3 H-LTB4 were made.

Molecules are shown by their SMILES.

T1 sequence (Q15722 whole entry): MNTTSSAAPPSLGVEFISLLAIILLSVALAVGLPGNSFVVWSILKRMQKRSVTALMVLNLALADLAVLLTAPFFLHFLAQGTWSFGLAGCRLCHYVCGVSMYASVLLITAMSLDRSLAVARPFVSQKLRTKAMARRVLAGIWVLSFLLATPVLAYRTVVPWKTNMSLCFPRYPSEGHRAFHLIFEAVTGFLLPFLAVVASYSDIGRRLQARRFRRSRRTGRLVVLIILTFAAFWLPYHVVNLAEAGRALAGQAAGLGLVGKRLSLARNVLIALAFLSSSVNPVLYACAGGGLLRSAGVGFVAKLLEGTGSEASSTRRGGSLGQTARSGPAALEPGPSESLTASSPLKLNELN

In the case of `CCCCCCCCCCOc1cc2oc3c(C(=O)O)cccc3c(=O)c2cc1CCC(=O)O` [Example 1, 5-Carboxy-3-(decyloxy)-9-oxo-9H-xanthene-2-propanoic acid], the inhibition at 1 µM was 25% and the inhibition at 0.1 µM came to 2%.

Consider `CCCCCCCCCCOc1ccc2c(=O)c3cccc(C(=O)O)c3oc2c1CCC(=O)O` [Example 2, 5-Carboxy-3-(decyloxy)-9-oxo-9H-xanthene-4-propanoic acid], for which the inhibition at 1 µM was found to be 27% and the inhibition at 0.1 µM was -7%.

With `CCCCCCCCCCOc1cc2oc3ccc(C(=O)O)cc3c(=O)c2cc1CCC(=O)O` [Example 3, 7-Carboxy-3-decyloxy-9-oxo-9H-xanthene-2-propanoic acid], the inhibition at 1 µM amounted to 23% and the inhibition at 0.1 µM was -4%.

As for `CCCCCCCCCCOc1ccc2c(=O)c3cc(C(=O)O)ccc3oc2c1CCC(=O)O` [Example 4, 7-Carboxy-3-(decyloxy)-9-oxo-9H-xanthene-4-propanoic acid], the inhibition at 10 µM worked out at 102%, the inhibition at 1 µM worked out at 86% and the inhibition at 0.1 µM was 52%.

As to `COc1ccc(C=CCCCCOc2ccc3c(=O)c4cc(C(=O)O)ccc4oc3c2CCC(=O)O)cc1` [Example 6, 7-Carboxy-3-{[6-(4-methoxyphenyl)-5-hexenyl]oxy}-9-oxo-9H-xanthene-4-propanoic acid], the inhibition at 10 µM was found to be 102%, the inhibition at 1 µM was found to be 99% and the inhibition at 0.1 µM is 91%.

As for `COc1ccc(CCCCCCOc2ccc3c(=O)c4cc(C(=O)O)ccc4oc3c2CCC(=O)O)cc1` [Example 7, 7-Carboxy-3-{[6-(4-methoxyphenyl)hexyl]oxy}-9-oxo-9H-xanthene-4-propanoic acid], the inhibition at 10 µM is 106%, the inhibition at 1 µM turned out to be 103% and the inhibition at 0.1 µM is 85%.

For `CCCCCCCCCCOc1cc2c(cc1CCC(=O)O)C(=O)c1cc(C(=O)O)ccc1-2` [Example 8, 7-Carboxy-3-decyloxy-9-oxo-9H-fluorene-2-propanoic acid], the inhibition at 10 µM is 68%, the inhibition at 1 µM was 19% and the inhibition at 0.1 µM was -4%.
